Key:
Assay in all cases: relative viability (nuclei count vs DMSO), 5 days (fraction); higher = more cells survive
BI-D1870 + Bortezomib = compound: CC(C)CCN1c2nc(Nc3cc(F)c(O)c(F)c3)ncc2N(C)C(=O)C1C [BI-D1870] + CC(C)C[C@H](NC(=O)[C@H](Cc1ccccc1)NC(=O)c1cnccn1)B(O)O [Bortezomib] (partner 0.002 µM)
Method in brief: (§1)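 Nuclei were stained with Hoechst during a one-step fixation (final 0.05% Triton X-100, 1% formaldehyde, 1 ug/ml Hoechst) carried out 5 days after dosing, then counted on 4× images. The cells, lung cancer lines in 1536-well plates, had been dosed by pin tool the day after seeding with one drug alone or a fixed anchor-drug dose plus five library-drug doses (not always all listed) in √10 steps. Relative viability is the nuclei count in treated wells divided by that in vehicle wells, and each value is the median of duplicate plates.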

BI-D1870 + Dasatinib = compound: CC(C)CCN1c2nc(Nc3cc(F)c(O)c(F)c3)ncc2N(C)C(=O)C1C [BI-D1870] + Cc1nc(Nc2ncc(C(=O)Nc3c(C)cccc3Cl)s2)cc(N2CCN(CCO)CC2)n1 [Dasatinib] (partner 0.075 µM)
Method in brief: as §1

BI-D1870 + Luminespib = compound: CC(C)CCN1c2nc(Nc3cc(F)c(O)c(F)c3)ncc2N(C)C(=O)C1C [BI-D1870] + CCNC(=O)c1noc(-c2cc(C(C)C)c(O)cc2O)c1-c1ccc(CN2CCOCC2)cc1 [Luminespib] (partner 0.01 µM)
Method in brief: as §1

Zebularine + Lapatinib = compound: O=c1ncccn1[C@@H]1O[C@H](CO)[C@@H](O)[C@H]1O [Zebularine] + CS(=O)(=O)CCNCc1ccc(-c2ccc3ncnc(Nc4ccc(OCc5cccc(F)c5)c(Cl)c4)c3c2)o1 [Lapatinib] (partner 2 µM)
Method in brief: as §1

Cell Line: UMC-11
- relative viability (BI-D1870 + Bortezomib; first compound 0.04 µM): 0.788
- relative viability (BI-D1870 + Bortezomib; first compound 0.1265 µM): 0.647
- relative viability (BI-D1870 + Bortezomib; first compound 0.4 µM): 0.561
- relative viability (BI-D1870 + Bortezomib; first compound 1.265 µM): 0.712
- relative viability (BI-D1870 + Bortezomib; first compound 4 µM): 0.553
- relative viability (BI-D1870 + Dasatinib; first compound 0.04 µM): 0.579
- relative viability (BI-D1870 + Dasatinib; first compound 0.1265 µM): 0.454
- relative viability (BI-D1870 + Dasatinib; first compound 0.4 µM): 0.481
- relative viability (BI-D1870 + Dasatinib; first compound 1.265 µM): 0.393
- relative viability (BI-D1870 + Dasatinib; first compound 4 µM): 0.142
- relative viability (BI-D1870 + Luminespib; first compound 0.04 µM): 1.06
- relative viability (BI-D1870 + Luminespib; first compound 0.1265 µM): 1.05
- relative viability (BI-D1870 + Luminespib; first compound 0.4 µM): 0.939
- relative viability (BI-D1870 + Luminespib; first compound 1.265 µM): 1.08
- relative viability (BI-D1870 + Luminespib; first compound 4 µM): 0.206
- relative viability (Zebularine + Lapatinib; first compound 1 µM): 1.28
- relative viability (Zebularine + Lapatinib; first compound 3.162 µM): 0.977
- relative viability (Zebularine + Lapatinib; first compound 10 µM): 0.614
- relative viability (Zebularine + Lapatinib; first compound 31.62 µM): 0.849
- relative viability (Zebularine + Lapatinib; first compound 100 µM): 0.436
